Blank lines part the entries; values can stand above or below the compound they belong to.
Columns and labels:
[1] = target: Hsp70i (Homo sapiens, UniProt P0DMV8); test: Thermofluor assay, purified Hsp70i; assay type: binding; design: Full length Hsp70 (black arrow) and tryptic fragments (blue arrows); His tag (cleaved yes); made in house; details: for effect on Tm of Hsp70i: compound alone; for increase of the Tm of Hsp70i: nucleotide alone, FIG. 4E/4G
Protocol: Protein Purification: Plasmids were provided for human HSPA1A, HSPA8, and HSPA1A C306D. Plasmids were transformed in Rosetta competent cells and single colonies were picked from streaked LB/ampicillin/chloramphenicol plates. Cultures were grown at 37° C. for 4-6 hours, were cooled to 15° C. and expression was induced overnight with 200 uM isopropyl 1-thio-β-D-galactopyranoside. Cells were pelleted and resuspended in Ni-lysis buffer (50 mM Na2HPO4, 300 mM NaCl, 10 mM Imidazole, 0.05% Tween-20) supplemented with Complete Mini protease inhibitor tablets (Roche, Mannheim, Germany) and […], and then sonicated. The cells were again pelleted and the supernatant was incubated with complete His-Tag purification resin (Roche, Mannheim, Germany) for 5 hours at 4° C. The resin was washed with Ni-wash buffer (50 mM Na2HPO4, 300 mM NaCl, 20 mM Imidazole, 0.05% Tween-20) and eluted with Ni-elution buffer (50 mM Na2HPO4, 300 mM NaCl, 250 mM Imidazole, 0.05% Tween-20). The elution was then incubated with tobacco etch virus protease overnight at 4° C. The following day the elution was incubated with the γ-phosphate ATP sepharose resin for 30 minutes at 4° C. Next the resin was washed with ATP-wash buffer (50 mMTris-HCl, 60 mM MgCl2, 60 mM KCl, 10 mM Citrate) supplemented with 1 mM DTT and then ATP-wash buffer supplemented with 2 mM ATP was added to the resin to elute the protein. The final elutions were concentrated in Amicon Ultra-15 Centrifugal Filter Units (EMD Millipore, Billerica, Mass.) and buffer exchanged into 25 mM HEPES, 5 mM MgCl2, 10 mM KCl (pH 7.5) and stored at −80° C. until use.
(§1) Thermofluor Assay: SYPRO orange (Molecular Probes, Eugene, Oreg.) was diluted 1:1000 in 25 mM HEPES, 5 mM MgCl2, 10 mM KCl (pH 7.5) and purified Hsp70i, Hsc70, Hsp70i C306, or Hsp90, was then added to a final dilution of 0.04 mg/ml. Where indicated 0.001% or 0.01% Triton X-100 (Sigma) was also added. The indicated compound or DMSO was then added at the specified concentration and each sample was added as 5 replicates to a 384 well plate (BioRad, Hercules, Calif.). A melt curve protocol (25° C. to 90° C., increasing 0.5° C. and a plate reading every 30 seconds) was run on a CFX384 Touch™ Real-Time PCR Detection System (BioRad). To determine the midpoint of the protein unfolding transition or Tm, GraphPad Prisim4 (La Jolla, Calif.) was used to normalize the melt curve and to calculate the first derivate of the melt curve, with the steepest point of the slope being the Tm.

[2] = system: MCF7; test: Cell proliferation, MCF7; assay type: cell-based
Protocol: (§2) Cell Proliferation: Cell proliferation was determined using a Hoechst stain (Sigma, St. Louis, Mo.) to quantify DNA. 5,000 cells of the designated cell line were plated in 96 well plates and treated the next day, designated as time point 0, with the indicated concentration of the specified compound maintained for the duration of the assay. At the indicated time points the media was removed and plated frozen at −80° C. Double distilled H2O was then added and the plates were incubated at 37° C. for 1 hour. After 1 hour the plates were frozen at −80° C. After freezing the plates were thawed and Hoechst stain was diluted 1:1000 in THE buffer (10 mM Tris, 2M NaCl, 1 mM Na2EDTA). The final fluorescence was measured on the Victor X2 plate reader at 355/460 nm, and cell proliferation was determined with the formula: % Cell Proliferation=100×(Sample fluorescence−background fluorescence)/(Control fluorescence−background fluorescence).

[3] = system: SkBr3; test: Cell proliferation, SkBr3; assay type: cell-based
Protocol: as §2

[4] = target: T1, GFP-Hsp70i (Homo sapiens, UniProt P0DMV8); test: FLECS elution of GFP-Hsp70i from γ-phosphate-linked ATP resin; assay type: binding
T1 construct: host or cells: HEK 293T
T1 sequence (P0DMV8 whole entry): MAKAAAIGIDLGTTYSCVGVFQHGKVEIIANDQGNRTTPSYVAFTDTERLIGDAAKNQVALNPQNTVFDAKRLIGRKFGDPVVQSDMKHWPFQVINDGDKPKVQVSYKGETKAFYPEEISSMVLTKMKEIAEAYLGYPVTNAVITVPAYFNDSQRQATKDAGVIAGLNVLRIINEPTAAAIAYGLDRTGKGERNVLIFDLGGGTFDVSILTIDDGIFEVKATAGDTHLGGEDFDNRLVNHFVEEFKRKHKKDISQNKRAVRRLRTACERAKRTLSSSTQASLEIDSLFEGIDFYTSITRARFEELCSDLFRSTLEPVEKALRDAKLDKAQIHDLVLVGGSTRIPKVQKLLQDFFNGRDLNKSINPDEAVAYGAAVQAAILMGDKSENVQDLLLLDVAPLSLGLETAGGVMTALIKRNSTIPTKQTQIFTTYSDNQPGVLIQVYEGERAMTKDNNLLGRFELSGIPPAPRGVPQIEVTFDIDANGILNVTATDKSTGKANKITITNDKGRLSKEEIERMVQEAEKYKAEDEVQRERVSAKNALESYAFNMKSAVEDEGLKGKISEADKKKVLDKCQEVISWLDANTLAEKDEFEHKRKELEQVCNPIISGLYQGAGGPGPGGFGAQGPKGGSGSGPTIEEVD
Protocol: (§3) FLECS Screen: A pEGFP-tagged Hsp70i was (plasmid 15215, Addgene, Cambridge, Mass.) used in the FLECS assay and was originally cloned according to [Zeng et al. (2004). Hsp70 dynamics in vivo: effect of heat shock and protein aggregation. Journal of cell science 117, 4991-5000]. ATP used in the assay was purchased from Sigma (St. Louis, Mo.) and a 200 mM stock was prepared with low salt buffer (150 mM NaCl, 25 mM Tris, pH 7.5, 60 mM MgCl2). The γ-phosphate ATP sepharose was synthesized as previously described and stored in low salt buffer [Haystead et al. (1993). Gamma-phosphate-linked ATP-sepharose for the affinity purification of protein kinases. Rapid purification to homogeneity of skeletal muscle mitogen-activated protein kinase kinase. European journal of biochemistry/FEBS 214, 459-467]. FuGENE 6 transfection reagent (Roche, Mannheim, Germany) was used for transfection of GFP-Hsp70i into HEK 293T cells, following the manufacturer protocol. The transfection ensued for 48 hours, upon which time the cells were harvested and lysed in cell lysis buffer (150 mM NaCl, 50 mM Tris, pH 7.5, 1% Triton X-100, 1 mM EDTA, 1 mM DTT, and 1 tablet Complete Mini protease inhibitor (Roche)). Cell lysates were stored at −80° C. until further use. Upon binding the resin lysates were washed 3× with high stringency wash buffer (1 M NaCl, 25 mM Tris, pH 7.5, 60 mM MgCl2, 1 mM DTT) and 3× with low stringency wash buffer (150 mM NaCl, 25 mM Tris, pH 7.5, 60 mM MgCl2, 1 mM DTT). […]
Assembly of a focused library, consisting of 3379 purine like compounds, was described previously [Carlson et al. (2013). Fluorescence Linked Enzyme Chemoproteomic Strategy for Discovery of a Potent and Selective DAPK1 and ZIPK Inhibitor. […] The lysates were eluted from the filter plate onto a catch plate by centrifugation and the fluorescence of the eluates was measured. […] Next, the presence of GFP-Hsp70i in the eluates from the 197 primary hits was determined by Western blot. […]

[5] = system: Hsp90; test: Thermofluor assay, Hsp90; assay type: binding
Protocol: as §1

[6] = system: Her2 and Akt; test: Degradation assay (Western blot of client proteins); assay type: cell-based; details: compound alone
Protocol: Western Blotting: SDS-PAGE was carried out using Criterion™ Cell system using pre-casted 4-20% or 4-15% Criterion™ Tris-HCl gels (BioRad, Hercules, Calif.). For Western blotting gels were run at 200V for 1 hour using the PowerPac basic power supply (BioRad, Hercules, Calif.). Next, gels were transferred to nitrocellulose for blotting at 100V for 1 hour (Fisher Scientific, Waltham, Mass.). Nitrocellulose membranes were blocked with 5% dry non-fat milk in phosphate-buffered saline (PBS) with 0.01% Tween-20 for 1 hour at room temperature. Membranes were incubated with primary antibodies (1:1000 dilution) overnight at 4° C. The next day membranes were washed 3× in PBS-Tween, incubated for 1 hour at room temperature with secondary antibodies, and further washed 3× in PBS-Tween. ECL Plus Western blotting reagent (Pierce Biotechnology, Rockford, Ill.) was used to detect antibodies. GFP, Her2, Akt, Hsp70, Hsc70, Grp78, Grp75, and Hsp90 primary antibodies and all associated secondary antibodies were purchased from Cell Signaling Technology (Danvers, Mass.).
Degradation Assay: The specified cells were seeded overnight and then treated with the indicated concentration of compound for 24 hours. The cells were then harvested and subjected to analysis by Western blot.

[7] = system: Hsp70i, Hsc70, Grp78, Grp75, Hsp90; test: Elution of HEK 293T cell lysate proteins from the ATP resin (silver stain, Western blot); assay type: binding; details: Western blot
Protocol: as §3, with “DTT). Next the lysates were transferred to 0.2 μm PVDF filter 96-well plate (Corning, Corning, N.Y.) sitting on top of a black flat-bottomed 96-well catch plate (Corning).” for “DTT).”
HS-72 specifically targets Hsp70i over other members of the Hsp70 superfamily. […] To more thoroughly determine the specificity of HS-72 for Hsp70i, the HEK 293T eluates were also analyzed for other Hsp70 family members Hsc70, Grp78, and Grp75, as well as Hsp90 by Western blot. […] The linker on the resin was cleaved using sodium dithionite and the samples were subjected to SDS-PAGE and analyzed by Western blot, silver stain, and mass spectrometry. […]

Sequence of Hsp70i (P0DMV8 whole entry, the tested form may be a part): as the sequence (P0DMV8 whole entry) above

effect on Tm of Hsp70i [1]: no dose dependent effect
Compound: NS(=O)(=O)C#Cc1ccccc1 [PES, pifithrin-μ, reference compound]

effect on Tm of Hsp70i [1]: does not change | effect on Tm of the ATP bound Hsp70i ([1]; in presence of ATP): does not change
Compound: CCCn1c(NC(=O)[C@@H]2CCCN(c3cnccn3)C2)nc2ccccc21 [HS-71, (R)—N-(1-propyl-1H-benzo[d]imidazol-2-yl)-1-(pyrazin-2-yl)piperidine-3-carboxamide]
cell proliferation ([2]; MCF7, 24 hours): no effect on proliferation | cell proliferation ([2]; MCF7, 48 hours at 25 uM and 50 uM): inhibition | cell proliferation, concentration with significant inhibition ([2]; MCF7, 72 hours): 50 uM alone | cell proliferation ([3]; SkBr3, 48 and 72 hours at 25 uM and 50 uM): inhibition in proliferation | cell proliferation ([3]; SkBr3, 24 hours): no effect on proliferation

nucleotide concentration needed to release bound GFP-Hsp70i from the γ-linked ATP resin [4]: mM | increase of the Tm of Hsp70i [1]: 2.5 °C
Compound: Nc1ncnc2c1ncn2[C@@H]1O[C@H](COP(=O)(O)OP(=O)(O)O)[C@@H](O)[C@H]1O [ADP, reference compound]
effect on Tm of Hsp70i [1]: increase the Tm of Hsp70i in a dose dependent manner

effect on Tm of Hsp70i [1]: increase
Compound: N#Cc1ccc(COC[C@H]2O[C@@H](n3c(NCc4ccc(Cl)c(Cl)c4)nc4c(N)ncnc43)[C@H](O)[C@@H]2O)cc1 [VER, VER-15508, reference compound]

Compound: Cc1nn(-c2ccc(C(N)=O)c(N[C@H]3CC[C@H](O)CC3)c2)c2c1C(=O)CC(C)(C)C2 [HS-10, 2-(((1r,4r)-4-hydroxycyclohexyl)amino)-4-(3,6,6-trimethyl-4-oxo-4,5,6,7-tetrahydro-1H-indazol-1-yl)benzamide, reference compound]
increase of the Tm of Hsp90 [5]: 10.5 °C | Tm of Hsp90 in presence of compound ([5]; from 50° C. without compound): 60.5 °C | Hsp70 protein levels [6]: increased Hsp70 protein levels | Akt and Her2 expression ([6]; BT474 breast cancer cells): induced degradation of Her2 and Akt

nucleotide concentration needed to release bound GFP-Hsp70i from the γ-linked ATP resin [4]: low μM | increase of the Tm of Hsp70i [1]: 3 °C
Compound: Nc1ncnc2c1ncn2[C@@H]1O[C@H](COP(=O)(O)OP(=O)(O)OP(=O)(O)O)[C@@H](O)[C@H]1O [ATP, reference compound]
effect on Tm of Hsp70i [1]: increase the Tm of Hsp70i in a dose dependent manner | Hsp70 family members and Hsp90 eluted from the ATP resin [7]: All the Hsp70 family members and Hsp90 are eluted
